The test system of series [1] is HL-60. The series is described as follows: Induction of human HL60 cell differentiation in presence of 1 x 10^-10 M RAR agonist Am80. The series is classed as functional, cell-based.
The target in series [2] is T1, Retinoid X receptor (Homo sapiens, UniProt P28702+P48443+P19793).
T1 sequence (P28702 whole entry): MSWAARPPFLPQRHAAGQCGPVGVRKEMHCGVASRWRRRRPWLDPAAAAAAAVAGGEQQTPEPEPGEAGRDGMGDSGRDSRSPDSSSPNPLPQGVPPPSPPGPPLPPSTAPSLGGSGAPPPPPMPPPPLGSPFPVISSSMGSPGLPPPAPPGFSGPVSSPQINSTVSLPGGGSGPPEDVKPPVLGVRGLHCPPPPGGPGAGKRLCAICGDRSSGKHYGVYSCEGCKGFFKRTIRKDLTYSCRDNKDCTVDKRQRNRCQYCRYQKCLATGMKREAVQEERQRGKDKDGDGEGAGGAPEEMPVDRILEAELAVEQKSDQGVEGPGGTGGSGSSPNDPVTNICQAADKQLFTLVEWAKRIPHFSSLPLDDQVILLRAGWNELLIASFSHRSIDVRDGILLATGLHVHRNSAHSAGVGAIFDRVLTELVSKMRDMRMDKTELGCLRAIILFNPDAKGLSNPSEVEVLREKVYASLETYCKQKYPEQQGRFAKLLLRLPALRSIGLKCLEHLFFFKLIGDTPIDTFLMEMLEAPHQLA
T1 sequence (P48443 whole entry): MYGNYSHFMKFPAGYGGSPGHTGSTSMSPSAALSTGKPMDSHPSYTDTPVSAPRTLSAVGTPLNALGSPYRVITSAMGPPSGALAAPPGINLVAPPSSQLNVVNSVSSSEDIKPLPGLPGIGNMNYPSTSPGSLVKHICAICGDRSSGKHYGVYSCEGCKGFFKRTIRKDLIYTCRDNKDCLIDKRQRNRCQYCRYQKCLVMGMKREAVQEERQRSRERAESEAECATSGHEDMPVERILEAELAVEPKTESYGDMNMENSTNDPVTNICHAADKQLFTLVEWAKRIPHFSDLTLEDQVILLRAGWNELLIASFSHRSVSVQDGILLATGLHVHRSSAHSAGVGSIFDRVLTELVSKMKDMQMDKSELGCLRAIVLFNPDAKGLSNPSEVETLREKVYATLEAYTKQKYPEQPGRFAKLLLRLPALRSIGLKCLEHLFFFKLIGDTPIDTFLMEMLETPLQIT
T1 sequence (P19793 whole entry): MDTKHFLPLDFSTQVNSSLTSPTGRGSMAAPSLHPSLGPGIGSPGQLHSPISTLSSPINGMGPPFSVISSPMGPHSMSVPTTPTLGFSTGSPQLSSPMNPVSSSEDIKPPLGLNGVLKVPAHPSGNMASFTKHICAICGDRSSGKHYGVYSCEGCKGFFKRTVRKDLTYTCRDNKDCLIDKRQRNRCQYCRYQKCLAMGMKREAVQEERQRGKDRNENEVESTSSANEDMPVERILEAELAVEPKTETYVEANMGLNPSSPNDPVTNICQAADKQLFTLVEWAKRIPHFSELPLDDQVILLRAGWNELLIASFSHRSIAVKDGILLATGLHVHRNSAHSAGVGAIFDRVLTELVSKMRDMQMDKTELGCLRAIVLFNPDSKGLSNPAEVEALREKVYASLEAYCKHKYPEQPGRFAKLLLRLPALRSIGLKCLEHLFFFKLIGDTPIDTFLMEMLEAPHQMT
The series is described as follows: Agonist activity at RXR (unknown origin) in presence of RAR agonist Am80. The series is classed as protein assay.

Series [3] deals with HL-60. The series is described as follows: Induction of human HL60 cell differentiation. Format: functional, cell-based.
Series [4] in a line: Agonist activity at RAR/RXR (unknown origin). Also noted: species or system Homo sapiens.
Series [5] can be described thus: Agonist activity at RAR/RXR (unknown origin) in presence of RAR agonist Am80. Further details: species or system Homo sapiens.
The subject of series [6] is HL-60. The series is described as follows: Induction of human HL60 cell differentiation at 1 x 10^-10 M. Format: functional.
Series [7] deals with HL-60. The series is described as follows: Induction of human HL60 cell differentiation at 3.3 x 10^-10 M. Format: functional.
Series [8] concerns HL-60. The series is described as follows: Inhibition of Am80-induced human HL60 cell differentiation. The series is classed as cell-based.

pEC50: −log10 of the molar value. Activity calls are given as the source filed them. The calls are words filed in the database; no cut-off is given here.

For the compound `Cc1cc2c(cc1N(C)c1ccc(C(=O)O)cc1)C(C)(C)CCC2(C)C`, the result in series [1] and in series [3] was Active. Further, in series [2], the EC50 is on record as 1.3 ×10⁻¹⁰ M.

For `CCCN(c1ccc(/C=C/C(=O)O)cc1)c1ccc2c(c1)C(C)(C)CCC2(C)C`, the outcome in series [1] and in series [3] was Active.

Regarding `Cc1cc2c(cc1N(C)c1ccc(CCC(=O)O)cc1)C(C)(C)CCC2(C)C`, the outcome in series [1] and in series [3] was Active.

By pEC50 is commonly meant the EC50 on a negative log10 scale, so that one unit is a factor of ten. For the compound `CCCN(c1ccc(C(=O)O)cc1)c1ccc2c(c1)C(C)(C)CCC2(C)C`, the EC50 result in series [4] was “Not Active”. In series [1], the outcome was Active. In addition, the negative logarithm of the EC50 (pEC50) in series [5] is 8.82.

For the compound `CCCN(c1ccc(CCC(=O)O)cc1)c1ccc2c(c1)C(C)(C)CCC2(C)C`, the outcome in series [1] and in series [3] was Active.

As for `CC1(C)CCC(C)(C)c2cc(NC(=O)c3ccc(C(=O)O)cc3)ccc21` [TAMIBAROTENE], the figures for the Activity in series [6] and in series [7] were 5% and 60%, respectively.

In the case of `CN(c1ccc(C(=O)O)cc1)c1ccc2c(c1)C(C)(C)CCC2(C)C`, the pEC50 is 6.44 in series [4] (read-out: EC50) and 8.18 in series [5]. Further, the outcome in series [3] was Active.

For the compound `CCCN(c1ccc(C(=O)O)cc1)c1cc2c(cc1C)C(C)(C)CCC2(C)C`, the outcome in series [1] was Active. The EC50 in series [2] amounted to 1.4 ×10⁻¹⁰ M.

Consider `CCCN(c1ccc(/C=C/C(=O)O)cc1)c1cc2c(cc1C)C(C)(C)CCC2(C)C`, for which the outcome in series [1] and in series [3] was Active.

With `Cc1cc(C(=O)O)ccc1N(C)c1ccc2c(c1)C(C)(C)CCC2(C)C`, the outcome in series [1] and in series [3] was inactive. In series [8], the “inhibition (INH)” value is recorded as “Dose-dependent effect”.

On to `CN(c1ccc(/C=C/C(=O)O)cc1)c1ccc2c(c1)C(C)(C)CCC2(C)C`, for which, in series [1], the outcome was Active. The compound further had a pEC50 in series [3] of 7.66.

As for `Cc1cc2c(cc1N(C)c1ccc(/C=C/C(=O)O)cc1)C(C)(C)CCC2(C)C`, in series [1], the outcome was Active. The compound further had a pEC50 in series [3] of 7.42.

Turning to `CCCN(c1ccc(CCC(=O)O)cc1)c1cc2c(cc1C)C(C)(C)CCC2(C)C`, the result in series [1] and in series [3] was Active.

As to `CN(c1ccc(CCC(=O)O)cc1)c1ccc2c(c1)C(C)(C)CCC2(C)C`, the result in series [1] and in series [3] was Active.

(Values after ChEMBL document CHEMBL2321651, “Structure-activity relationship study on benzoic acid part of diphenylamine-based retinoids” (Bioorg Med Chem Lett, 2013).)
